Like-named read-outs stand apart in the source and are kept apart here.
Biological target: human TRPA1 channel (Homo sapiens (Human), UniProt O75762)
Assay: hTRPA1 CHO Ca2+ FLIPR Tetra assay: block of cinnamaldehyde induced calcium influx
Type: cell-based
Conditions: CHO cells expressing TRPA1, Hill coefficient fixed to 1.5
Summary of the method: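 TRPA1-expressing CHO cells loaded with calcium indicator dye (1 h 37° C, then 15 min room temperature) in HBSS/20 mM HEPES pH 7.4/0.02% BSA. IC50 from fits with fixed Hill coefficient.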

[1] = read-out: hTRPA1 IC50 10 min, 10 minutes incubation with compound before cinnamaldehyde (about EC80)
[2] = read-out: hTRPA1 IC50 90 min, 90 minutes incubation with compound before cinnamaldehyde (about EC80)
[3] = hTRPA1 IC50 10 min, 10 minutes incubation with compound before cinnamaldehyde (about EC80)
[4] = hTRPA1 IC50 90 min, 90 minutes incubation with compound before cinnamaldehyde (about EC80)

Chain of human TRPA1 channel (O75762 whole entry): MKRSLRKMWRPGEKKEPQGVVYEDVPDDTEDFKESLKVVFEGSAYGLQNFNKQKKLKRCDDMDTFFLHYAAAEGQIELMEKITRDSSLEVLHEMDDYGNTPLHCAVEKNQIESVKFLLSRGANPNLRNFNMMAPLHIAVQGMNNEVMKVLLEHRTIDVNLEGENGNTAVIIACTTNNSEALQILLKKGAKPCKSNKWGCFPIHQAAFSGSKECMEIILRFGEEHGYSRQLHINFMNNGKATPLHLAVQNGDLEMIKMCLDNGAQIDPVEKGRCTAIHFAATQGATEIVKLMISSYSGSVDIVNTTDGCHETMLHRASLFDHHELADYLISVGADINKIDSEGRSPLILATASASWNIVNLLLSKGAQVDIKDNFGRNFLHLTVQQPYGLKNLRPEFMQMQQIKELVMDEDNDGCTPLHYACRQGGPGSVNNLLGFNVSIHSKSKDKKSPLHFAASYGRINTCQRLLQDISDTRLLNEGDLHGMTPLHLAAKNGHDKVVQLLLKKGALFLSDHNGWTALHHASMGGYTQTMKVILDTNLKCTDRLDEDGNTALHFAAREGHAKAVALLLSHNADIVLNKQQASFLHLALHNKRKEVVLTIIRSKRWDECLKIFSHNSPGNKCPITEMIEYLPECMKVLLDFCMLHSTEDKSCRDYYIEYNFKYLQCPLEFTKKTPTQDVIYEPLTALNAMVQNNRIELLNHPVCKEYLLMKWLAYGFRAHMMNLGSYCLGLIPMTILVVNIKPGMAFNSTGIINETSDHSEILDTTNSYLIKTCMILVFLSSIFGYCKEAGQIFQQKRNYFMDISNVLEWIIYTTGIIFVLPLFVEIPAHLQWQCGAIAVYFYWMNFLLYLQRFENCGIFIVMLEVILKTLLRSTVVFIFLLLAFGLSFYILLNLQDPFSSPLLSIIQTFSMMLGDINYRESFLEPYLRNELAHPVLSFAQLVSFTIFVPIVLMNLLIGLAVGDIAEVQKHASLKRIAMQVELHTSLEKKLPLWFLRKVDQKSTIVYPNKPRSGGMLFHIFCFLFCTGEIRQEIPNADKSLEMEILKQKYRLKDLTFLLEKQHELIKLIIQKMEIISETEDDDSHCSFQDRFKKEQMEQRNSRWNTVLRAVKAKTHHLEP

Compound | IC50 [1] | IC50 [2] | IC50 [3] | IC50 [4]
Cc1nc2ncn(C)c2c(=O)n1Cc1nc([C@@H]2CO[C@@H](c3ccc(F)cc3)C2)no1 [Example 137, 1-((3-((3R,5R)-5-(4-fluorophenyl)tetrahydro-furan-3-yl)-1,2,4-oxadiazol-5-yl)methyl)-2,7-dimethyl-1,7-dihydro-6H-purin-6-one] | 64.1 nM | 13 nM |  | 
O=c1c2ccnnc2ncn1Cc1nc([C@@H]2CO[C@@H](c3ccc(F)cc3)C2)no1 [Example 103, 6-[[3-[(3R,5R)-5-(4-fluorophenyl)tetrahydro-furan-3-yl]-1,2,4-oxadiazol-5-yl]methyl]pyrimido[4,5-c]pyridazin-5-one] | 71.7 nM | 89 nM |  | 
COc1nccc2c(=O)n(Cc3nc([C@@H]4CO[C@@H](c5ccc(Cl)cc5)C4)no3)cnc12 [Example 52, 3-((3-((3R,5R)-5-(4-chlorophenyl)tetrahydro-furan-3-yl)-1,2,4-oxadiazol-5-yl)methyl)-8-methoxypyrido[3,4-d]pyrimidin-4(3H)-one] | 95.1 nM | 140 nM |  | 
Cn1cnc2nc(N)n(Cc3nc([C@@H]4CO[C@@H](c5cccc(F)c5)C4)no3)c(=O)c21 [Example 125, 2-amino-1-((3-((3R,5R)-5-(3-fluorophenyl)tetrahydrofuran-3-yl)-1,2,4-oxadiazol-5-yl)methyl)-7-methyl-1,7-dihydro-6H-purin-6-one] | 40.5 nM | 3.1 nM |  | 
O=c1c2cccc(=O)n2ccn1Cc1nc([C@@H]2CO[C@@H](c3ccc(Cl)cc3)C2)no1 (racemic) [Example 98, 2-[[3-[rac-(3R,5R)-5-(4-chlorophenyl)tetrahydro-furan-3-yl]-1,2,4-oxadiazol-5-yl]methyl] pyrido[1,2-a]pyrazine-1,6-dione] |  |  | 6.4 nM | 4 nM
Cn1cnc2ncn(Cc3nc([C@@H]4CO[C@@](C)(c5ccc(Cl)cc5)C4)no3)c(=O)c21 [Example 42, 1-((3-((3R,5R)-5-(4-chlorophenyl)-5-methyltetrahydrofuran-3-yl)-1,2,4-oxadiazol-5-yl)methyl)-7-methyl-1,7-dihydro-6H-purin-6-one] | 3710 nM | 2200 nM |  | 
Cc1ccnc2c1c(=O)nc(N)n2Cc1nc([C@@H]2CO[C@@H](c3ccc(Cl)cc3)C2)no1 [Example 134, 2-amino-1-((3-((3R,5R)-5-(4-chlorophenyl)tetrahydro-furan-3-yl)-1,2,4-oxadiazol-5-yl)methyl)-5-methylpyrido[2,3-d] pyrimidin-4(1H)-one] | 20 nM | 6 nM |  | 
Cn1cnc2nc(Cl)n(Cc3nc([C@@H]4CO[C@@H](c5ccc(Cl)cc5)C4)no3)c(=O)c21 [Example 120, 2-chloro-1-((3-((3R,5R)-5-(4-chlorophenyl)tetrahydro-furan-3-yl)-1,2,4-oxadiazol-5-yl)methyl)-7-methyl-1,7-dihydro-6H-purin-6-one] | 29.4 nM | 20 nM |  | 
Cn1cnc2nc(N)n(Cc3nc([C@@H]4CO[C@@H](c5ccc(F)cc5)C4)no3)c(=O)c21 [Example 144, 2-amino-1-((3-((3R,5R)-5-(4-fluorophenyl)tetrahydro-furan-3-yl)-1,2,4-oxadiazol-5-yl)methyl)-7-methyl-1,7-dihydro-6H-purin-6-one] | 56.9 nM | 6.6 nM |  | 
Cc1nc2nc(C)n(C)c2c(=O)n1Cc1nc([C@@H]2CO[C@@H](c3ccc(Cl)cc3)C2)no1 [Example 109, 1-((3-((3R,5R)-5-(4-chlorophenyl)tetrahydro-furan-3-yl)-1,2,4-oxadiazol-5-yl)methyl)-2,7,8-trimethyl-1,7-dihydro-6H-purin-6-one] | 85 nM | 62 nM |  | 
Cn1nnc2cnn(Cc3nc([C@@H]4CO[C@@H](c5ccc(Cl)cc5)C4)no3)c(=O)c21 [Example 140, 5-((3-((3R,5R)-5-(4-chlorophenyl)tetrahydro-furan-3-yl)-1,2,4-oxadiazol-5-yl)methyl)-3-methyl-3,5-dihydro-4H-[1,2,3]triazolo[4,5-d]pyridazin-4-one] | 80.1 nM | 43 nM |  | 
Cc1nc(N2CCOCC2)n2ncn(Cc3nc([C@@H]4CO[C@@H](c5ccc(Cl)cc5)C4)no3)c(=O)c12 (racemic) [Example 101, 5-methyl-7-morpholino-3-[[3-[rac-(3R,5R)-5-(4-chlorophenyl)tetrahydro-furan-3-yl]-1,2,4-oxadiazol-5-yl]methyl]imidazo[5,1-f][1,2,4]triazin-4-one] |  |  | 123 nM | 96 nM
Cc1cnn2ncn(Cc3nc([C@@H]4CO[C@@H](c5ccc(Cl)cn5)C4)no3)c(=O)c12 (racemic) [Example 72, Racemic 3-((3-((3R,5R)-5-(5-chloropyridin-2-yl)tetrahydrofuran-3-yl)-1,2,4-oxadiazol-5-yl)methyl)-5-methylpyrazolo[5,1-f] [1,2,4]triazin-4(3H)-one] |  |  | 219 nM | 150 nM
Cn1nnc2nc(N)n(Cc3nc([C@@H]4CO[C@@H](c5ccc(Cl)cc5)C4)no3)c(=O)c21 (racemic) [Example 156, 5-amino-1-methyl-6-[[3-[rac-(3R,5R)-5-(4-chlorophenyl)tetrahydro-furan-3-yl]-1,2,4-oxadiazol-5-yl]methyl]triazolo[4,5-d]pyrimidin-7-one] |  |  | 16.1 nM | 2.1 nM

Second part, the compound after the results:

IC50 [1] | IC50 [2] | IC50 [3] | IC50 [4] | Compound
4.65 nM | 2.1 nM |  |  | Cn1nnc2ccn(Cc3nc([C@@H]4CO[C@@H](c5ccc(Cl)cc5)C4)no3)c(=O)c21 [Example 61, 5-((3-((3R,5R)-5-(4-chlorophenyl)tetrahydro-furan-3-yl)-1,2,4-oxadiazol-5-yl)methyl)-3-methyl-3,5-dihydro-4H-[1,2,3]triazolo[4,5-c]pyridin-4-one]
17.9 nM | 2.9 nM |  |  | Cc1cnn2nc(N)n(Cc3nc([C@@H]4CO[C@@H](c5cccc(F)c5)C4)no3)c(=O)c12 [Example 127, 2-amino-3-((3-((3R,5R)-5-(3-fluorophenyl)tetrahydro-3-yl)-1,2,4-oxadiazol-5-yl)methyl)-5-methylpyrazolo[5,1-f] [1,2,4]triazin-4(3H)-one]
8.26 nM | 2.3 nM |  |  | Cc1cnn2ncn(Cc3nc([C@@H]4CO[C@@H](c5ccc6cnn(C)c6c5)C4)no3)c(=O)c12 [Example 138, 5-methyl-3-((3-((3R,5R)-5-(1-methyl-1H-indazol-6-yl)tetrahydrofuran-3-yl)-1,2,4-oxadiazol-5-yl)methyl)pyrazolo[5,1-f][1,2,4]triazin-4(3H)-one]
10.5 nM | 3.5 nM |  |  | Nc1ccc2c(=O)n(Cc3nc([C@@H]4CO[C@@H](c5ccc(Cl)cc5)C4)no3)ncc2n1 [Example 87, 2-amino-6-((3-((3R,5R)-5-(4-chlorophenyl)tetra-hydrofuran-3-yl)-1,2,4-oxadiazol-5-yl)methyl) pyrido[2,3-d]pyridazin-5(6H)-one]
18.4 nM | 1.5 nM |  |  | Cn1cnc2nc(N)n(Cc3nc([C@@H]4CO[C@@H](c5ccc(Cl)cc5)C4)no3)c(=O)c21 [Example 71, 2-amino-1-((3-((3R,5R)-5-(4-chlorophenyl)tetrahydrofuran-3-yl)-1,2,4-oxadiazol-5-yl)methyl)-7-methyl-1,7-dihydro-6H-purin-6-one]
7.55 nM | 3.4 nM |  |  | Cn1nnc2ncn(Cc3nc([C@@H]4CO[C@@H](c5ccc(F)cc5)C4)no3)c(=O)c21 [Example 12, 6-((3-((3R,5R)-5-(4-fluorophenyl)tetra-hydrofuran-3-yl)-1,2,4-oxadiazol-5-yl)methyl)-1-methyl-1,6-dihydro-7H-[1,2,3]triazolo[4,5-d]pyrimidin-7-one]
7.88 nM | 2 nM |  |  | Cn1cnc2ncn(Cc3nc([C@@H]4CO[C@@H](c5ccc(Cl)c(F)c5)C4)no3)c(=O)c21 [Example 32, 1-((3-((3R,5R)-5-(4-chloro-3-fluorophenyl)tetrahydro-furan-3-yl)-1,2,4-oxadiazol-5-yl)methyl)-7-methyl-1,7-dihydro-6H-purin-6-one]
10.4 nM | 1.5 nM |  |  | Cc1ccnc2nc(N)n(Cc3nc([C@@H]4CO[C@@H](c5ccc(Cl)cc5)C4)no3)c(=O)c12 [Example 135, 2-amino-3-((3-((3R,5R)-5-(4-chlorophenyl)tetrahydro-furan-3-yl)-1,2,4-oxadiazol-5-yl)methyl)-5-methylpyrido[2,3-d] pyrimidin-4(3H)-one]
19.7 nM | 7.8 nM |  |  | Cn1cnc2ncn(Cc3nc([C@@H]4CO[C@@H](c5ccc(Cl)c(Cl)c5)C4)no3)c(=O)c21 [Example 31, 1-((3-((3R,5R)-5-(3,4-dichlorophenyl)tetra-hydrofuran-3-yl)-1,2,4-oxadiazol-5-yl)methyl)-7-methyl-1,7-dihydro-6H-purin-6-one]
12.7 nM | 16 nM |  |  | O=c1ccc2c(=O)n(Cc3nc([C@@H]4CO[C@@H](c5ccc(Cl)cc5)C4)no3)cnc2[nH]1 [Example 124, 3-((3-((3R,5R)-5-(4-chlorophenyl)tetrahydro-furan-3-yl)-1,2,4-oxadiazol-5-yl)methyl) pyrido[2,3-d]pyrimidine-4,7(3H,8H)-dione]
4.16 nM | 3 nM |  |  | Cn1cnc2ncn(Cc3nc([C@@H]4CO[C@@H](c5ccc(Cl)cc5)C4)no3)c(=S)c21 [Example 59, 1-((3-((3R,5R)-5-(4-chlorophenyl)tetrahydro-furan-3-yl)-1,2,4-oxadiazol-5-yl)methyl)-7-methyl-1,7-dihydro-6H-purine-6-thione]

Source: patent publication US10710994B2, “Oxadiazole transient receptor potential channel inhibitors” (Genentech, Inc., priority 2018, dated 2020)
